This is an account of results in patent US7815918B2, “Polypeptides and immunogenic conjugates capable of inducing antibodies against pathogens, and uses thereof” (priority 2003, dated 2010).

Entries after “also recorded” stand apart in the source; their conditions may differ. Ends that are not written are not given here.

The subject of test [1] is mAb 4F11(G1). In words: Western blot of purified recombinant thioredoxin fusion proteins probed with mAb 4F11. The settings on record: for reactivity with mAb 4F11 in Western blot: purified thioredoxin fusion protein separated by SDS-PAGE. Type of test: binding, mouse. The source says:
MAb 4F11 was produced as described (Lee et al., “Molecular Characterization of KEX1, a Kexin-Like Protease in Mouse Pneumocystis carinii,” Gene 242:141-150 (2000), which is hereby incorporated by reference in its entirety). For colony immunoscreens and P. carinii immunofluorescence assays (IFAs), mAb 4F11 IgM ascites fluid was used at a 1:5000 dilution. For enzyme-linked immunosorbent assays (ELISA) and Western blots of purified recombinant proteins an IgG1 switch-variant of mAb 4F11(G1) (Gigliotti et al., “Passive Intranasal Monoclonal Antibody Prophylaxis Against Murine Pneumocystis carinii Pneumonia,” Infect. Immun. 70:1069-1074 (2002), which is hereby incorporated by reference in its entirety) was prepared by saturated ammonium sulfate precipitation of tissue culture supernatant and used at the indicated dilutions. MAb 2B5 is an IgG1 that recognizes a mouse P. carinii gpA (Gigliotti et al., “Antibody-Mediated Shift in the Profile of Glycoprotein A Phenotypes Observed in a Mouse Model of Pneumocystis carinii Pneumonia,” Infect. Immun. 64:1892-1899 (1996), which is hereby incorporated by reference in its entirety) and was used as a negative control in S. pneumoniae immunoblots and IFAs. MAb 1C7 is an anti-mouse P. carinii IgM used as an isotype control in IFAs against P. carinii derived from different hosts. Pooled hyperimmune sera against mouse P. carinii was obtained as described previously (Gigliotti et al., “Development of Murine Monoclonal Antibodies to Pneumocystis carinii,” J. Infect. Dis. 154:315-322 (1986), which is hereby incorporated by reference in its entirety).
To confirm reactivity of E. coli pSCREEN transformants with mAb 4F11, 5 mL overnight cultures were pelleted and resuspended in 200 μL of 1× Laemmli SDS running/sample buffer+5% β-mercaptoethanol, and 20 μL samples were separated on NuPAGE Bis-Tris 4-12% gels (Invitrogen) by SDS-PAGE. S. pneumoniae from blood agar plates was grown in 5 mL THY overnight, 1 mL aliquots were pelleted, resuspended in 200 μL 1× sample buffer, and 20 μL were resolved by SDS-PAGE. Purified recombinant protein was suspended in sample buffer in equal concentrations and separated as described for cell lysates. Western blots were performed as previously described (Lee et al., “Molecular Characterization of KEX1, a Kexin-Like Protease in Mouse Pneumocystis carinii,” Gene 242:141-150 (2000), which is hereby incorporated by reference in its entirety).
Production of 6×His-tagged thioredoxin fusion proteins using the pBADTHIO expression system in E. coli was performed following the manufacturer's instructions. Briefly, overnight cultures were diluted 1:40 in fresh LB+100 μg/mL ampicillin and grown at 37° C. with shaking to absorbance at 600 nm of approximately 0.5. For fusion protein induction, arabinose was added to a final concentration of 0.02% and cultures were grown an additional 5 hr at 37° C. with shaking. Cells were pelleted by centrifugation at 1000×g then resuspended in ⅕ original culture volume with lysis buffer (50 mM sodium phosphate, 6 M guanidine-HCl, 300 mM NaCl) and vortexed vigorously. Debris was pelleted by centrifugation at 10,000×g at 4° C. The supernatants were passed over a TALON affinity resin column (BD Biosciences, Palo Alto, Calif.) that had been pre-equilibrated with lysis buffer. The columns were then washed twice with 10 mL 50 mM sodium phosphate, 300 mM NaCl. The fusion proteins were eluted with 2 mL buffer containing 50 mM sodium phosphate, 300 mM NaCl, and 150 mM imidazole. The eluted protein was dialyzed overnight against PBS at 4° C. and concentrated by vacuum centrifugation. Protein concentrations were determined using a BCA microwell assay kit (Pierce, Rockford, Ill.).
On the technique in general: A western blot detects proteins with antibodies after separation by electrophoresis.

For test [2], the system named is mAb 4F11(G1). The test can be described thus: ELISA of epitope-thioredoxin fusion constructs using mAb 4F11(G1). Type of test: binding, mouse. The protocol: (§1) Purified recombinant protein at a concentration of 10 μg/mL in 50 mM carbonate-bicarbonate buffer pH 9.5+0.1% SDS was used to coat Costar ELISA plates (Corning Incorporated, Corning, N.Y.) 16-20 hr at 37° C. The plates were blocked with 3% BSA-TBST for 1 hr at 4° C. Primary antibody was added in two-fold serial dilutions in 3% BSA-TBST and incubated at 4° C. for 1 hr. Goat anti-mouse IgG+IgM-alkaline phosphatase conjugate secondary antibody was added at 1:5000 dilution in BSA-TBST for one hr at 4° C. Blue Phos substrate (KPL, Gaithersburg Md.) was added for 30 min, color development was stopped with 2.5% EDTA, and absorbance was read at 655 nm using a Benchmark microplate reader (Bio-Rad).
Experimental ELISA results were statistically compared to the control values using a two-tailed Student's t test. Results were considered significant if p≦0.05.

Test [3] concerns the target 4F11(G1) binding against plate-bound sonicated mouse P. carinii. In words: Competitive (inhibition) ELISA: synthetic peptides as soluble competitors for 4F11(G1) binding to plate-bound sonicated mouse P. carinii. The source says:
FIGS. 5A-F show the analysis of purified recombinant epitope-thioredoxin fusion proteins. FIG. 5A is a gel stained with Coomassie Blue. FIG. 5B is a Western blot using mAb 4F11(G1). FIG. 5C is a Western blot using anti-V5 epitope tag mAb. FIG. 5D is an ELISA of epitope-thioredoxin fusion constructs using mAb 4F11(G1). Results are plotted as the mean±standard error of triplicate experiments. […] Results are plotted as the mean±standard deviation of triplicate experiments. […] Results are plotted as the mean±standard deviation of triplicate experiments. The dashed line indicates the mean absorbance at 655 nm with no inhibitor and a 4F11(G1) dilution of 1:3200.
(§2) Mouse P. carinii Kexin 777-787 (RPAPPKPTPQP, SEQ ID NO: 56) and Kexin 131-142 (SGDTGNVNSGEK, SEQ ID NO: 57) peptides were purchased from Alpha Diagnostics (San Antonio, Tex.). ELISA experiments using the synthetic peptides were performed as described above, using 10 μg peptide/mL in carbonate-bicarbonate buffer to coat the plates. For competitive ELISA studies peptides were incubated at three fold dilutions with a starting concentration of 100 μg/mL for 2 hr with a 1:3200 dilution of mAb 4F11 at 4° C. to reach equilibrium. Mouse P. carinii sonicates in carbonate-bicarbonate buffer were used to coat ELISA plates at the equivalence of 4×10^4 cysts per well overnight at 4° C. The peptide-antibody mixtures, or antibody alone at 1:3200 dilution, were used as the primary antibody in the ELISA following the above protocol.
(ELISA stands for enzyme-linked immunosorbent assay.)

The subject of test [4] is mAb 4F11(G1). The test can be described thus: ELISA of synthetic P. carinii peptides using mAb 4F11(G1). It counts as binding, mouse. Particulars: 10 μg peptide/mL coat, no fusion partner. On the procedure: as §1
as §2, with “The peptide-antibody mixtures, or antibody alone at 1:3200 dilution, were used as the primary antibody in the ELISA following the above protocol.” left out

Test [5] relates to hyperimmune sera from mice immunized with whole P. carinii. In words: Western blot of A12 fusion protein with hyperimmune sera from P. carinii-immunized mice. It counts as binding, mouse. The source says:
MAb 4F11 was produced as described (Lee et al., “Molecular Characterization of KEX1, a Kexin-Like Protease in Mouse Pneumocystis carinii,” Gene 242:141-150 (2000), which is hereby incorporated by reference in its entirety). For colony immunoscreens and P. carinii immunofluorescence assays (IFAs), mAb 4F11 IgM ascites fluid was used at a 1:5000 dilution. For enzyme-linked immunosorbent assays (ELISA) and Western blots of purified recombinant proteins an IgG1 switch-variant of mAb 4F11(G1) (Gigliotti et al., “Passive Intranasal Monoclonal Antibody Prophylaxis Against Murine Pneumocystis carinii Pneumonia,” Infect. Immun. 70:1069-1074 (2002), which is hereby incorporated by reference in its entirety) was prepared by saturated ammonium sulfate precipitation of tissue culture supernatant and used at the indicated dilutions. MAb 2B5 is an IgG1 that recognizes a mouse P. carinii gpA (Gigliotti et al., “Antibody-Mediated Shift in the Profile of Glycoprotein A Phenotypes Observed in a Mouse Model of Pneumocystis carinii Pneumonia,” Infect. Immun. 64:1892-1899 (1996), which is hereby incorporated by reference in its entirety) and was used as a negative control in S. pneumoniae immunoblots and IFAs. MAb 1C7 is an anti-mouse P. carinii IgM used as an isotype control in IFAs against P. carinii derived from different hosts. […]

Setting [6] is: at lower mAb 4F11 dilutions, plate coated 10 μg/mL.

For the molecule “E46PRPQPTS53 (EPRPQPTS; not fully specified; printed as E46PRPQPTS53) [A1246-53]”, in the test on mAb 4F11(G1) [1], the “reactivity with mAb 4F11 in Western blot” value was “do not react with mAb 4F11”.
For “E54PQPQPAP61 (EPQPQPAP; not fully specified; printed as E54PQPQPAP61) [A1254-61]”, in the test with mAb 4F11(G1) [1], the “reactivity with mAb 4F11 in Western blot” value is on record as “do not react with mAb 4F11”.
For the molecule “K62PRPQPTSKPRPQPTP77 (KPRPQPTSKPRPQPTP; not fully specified; printed as K62PRPQPTSKPRPQPTP77) [A1262-77]”, the “ELISA reactivity to mAb 4F11” value with mAb 4F11(G1) [2] (at 1:800 or greater dilution) was “only background reactivity”. Also, the “ELISA reactivity with mAb 4F11” value in the test with mAb 4F11(G1) [2] (setting [6]) is listed as “lower reactivity, but significantly higher than the thioredoxin fusion partner alone”.
As for “K70PRPQPTP77 (KPRPQPTP; not fully specified; printed as K70PRPQPTP77) [A1270-77]”, in the test with mAb 4F11(G1) [1], the “reactivity with mAb 4F11 in Western blot” value was “positive reactivity”.
On to “K856PAPKPTP863 (KPAPKPTP; not fully specified; printed as K856PAPKPTP863) [Kexin856-863]”, for which the “reactivity with mAb 4F11 in Western blot” value in the test on mAb 4F11(G1) [1] was “positive reactivity”.
With “K856PAPKPTPPKPAPKPAP872 (KPAPKPTPPKPAPKPAP; not fully specified; printed as K856PAPKPTPPKPAPKPAP872) [Kexin856-872]”, the “ELISA reactivity with mAb 4F11” value in the test on mAb 4F11(G1) [2] (setting [6]) is listed as “highest reactivity”.
As to “K865PAPKPAP872 (KPAPKPAP; not fully specified; printed as K865PAPKPAP872) [Kexin865-872]”, the “reactivity with mAb 4F11 in Western blot” value with mAb 4F11(G1) [1] was “positive reactivity”.
R777PAPPKPTPQP787 [Kexin777-787]: in the test on mAb 4F11(G1) [1] (1 μg purified protein), the “binding with mAb 4F11 compared with Kexin856-872, based on size and intensity of the Western blot band” value is reported as “enhanced binding”. The “ELISA reactivity with mAb 4F11” value in the test on mAb 4F11(G1) [2] (at higher mAb 4F11 dilutions) was “greater reactivity with mAb 4F11 than did the original 17mer epitope”. The “ELISA reactivity with mAb 4F11” value in the test with mAb 4F11(G1) [2] (setting [6]) is reported as “highest reactivity”. Moreover, in test [3] (4F11(G1) diluted 1:3200), the “50% inhibition of binding of mAb 4F11 to native P. carinii antigens” value is reported as 150 ng/mL and the “concentration that completely blocks binding of mAb 4F11 to native P. carinii antigens” value came to 1 µg/mL.
Turning to RPAPPKPTPQP [Kex777-787], the “ELISA reactivity of synthetic peptide to mAb 4F11” value in the test with mAb 4F11(G1) [4] is “high reactivity”.
Take “SGDTGNVNSGEK [Kex131-142, reference compound]”: the “ELISA reactivity of synthetic peptide to mAb 4F11” value in the test with mAb 4F11(G1) [4] was “did not react”. Moreover, the “inhibition of binding of mAb 4F11 to native P. carinii antigens” value in test [3] (at the highest concentration tested) is given as “no inhibition”.
With “thioredoxin fusion partner: thioredoxin fusion partner alone, negative control for the fusion constructs [reference compound]”, the entries for the “reactivity with mAb 4F11 in Western blot” value with mAb 4F11(G1) [1] and with mAb 4F11(G1) [1] (listed as fusion partner) were “does not react with mAb 4F11; also recorded: did not react with mAb 4F11” and “did not react with mAb 4F11”, respectively.

B1: A121-142: truncated A12 molecule, residues 1-142 of SEQ ID NO: 5, expressed as thioredoxin fusion protein (protein)
chain: TNISEPALPDKDPQPTSSPQPKPRPRPRPQPQPHPHPKPQPQPTPEPQPQPAPEPRPQPTSKPRPQPTSKPRPQPTPEPRPLPVPGPGPLPVPGPRPQPQPQPQPQPQPQPQPQPQPQPQPQPQPQPQPQPKPQPPSQSTSE
modifications: thioredoxin fusion partner
In the case of B1, the “reactivity with mAb 4F11 in Western blot” value with mAb 4F11(G1) [1] is “reacted with mAb 4F11”.

B2: URSP2 PspA: recombinant thioredoxin fusion protein containing the α-helical domain, clade defining region and proline-rich repeat region of URSP2 PspA (protein)
chain: EKELKEIDESDSEDYIKEGLRAPLQSKLDAKKAKLSKLEELSDKIDELDAEIAKLEKDVEDFKNSDGEQAEQYLVAAKKDLDAKKAELENTEADLKKAVDEPETPAPAPKPAPAPAPTPEAPAPAPKPAPAPKPAPAPAPTPEAPAPAPKPAPAPKPAPAPAPTPEAPAPAPKPAPAPRPAPAPKPAPDPKP
modifications: left off: large carriers
With B2, the “reactivity with mAb 4F11 in Western blot” value in the test on mAb 4F11(G1) [1] is “shown to react with mAb 4F11”.

B3: A121-82: truncated A12 molecule, residues 1-82 of SEQ ID NO: 5, expressed as thioredoxin fusion protein (protein)
chain: TNISEPALPDKDPQPTSSPQPKPRPRPRPQPQPHPHPKPQPQPTPEPQPQPAPEPRPQPTSKPRPQPTSKPRPQPTPEPRPL
modifications: thioredoxin fusion partner
Take B3: in the test with mAb 4F11(G1) [1], the “reactivity with mAb 4F11 in Western blot” value is recorded as “reacted with mAb 4F11”. In addition, in test [5], the “reactivity with hyperimmune sera in Western blot” value is recorded as “reacted with hyperimmune sera”.
